Tests used:
Experiment in all cases: relative viability (nuclei count vs DMSO), 5 days (fraction); higher = more cells survive
[1] = compound: Cc1ccc(C(=O)Nc2cccc(C(F)(F)F)c2)cc1Nc1cncc(C(N)=O)c1 [ALW-II-49-7] + O=C(c1cc(Cc2n[nH]c(=O)c3ccccc23)ccc1F)N1CCN(C(=O)C2CC2)CC1 [Olaparib] (partner 8 µM)
How it was run: (§1)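 Relative viability divides the nuclei count in treated wells by that in vehicle wells. Lung cancer cell lines were seeded in 1536-well plates, dosed by pin tool the next day, and fixed and stained after 5 days in one step with final 0.05% Triton X-100, 1% formaldehyde and 1 ug/ml Hoechst. Dosing was a single drug or a fixed anchor-drug dose plus five library-drug doses (not always all listed) in √10 steps, and values are medians of duplicate plates imaged at 4×.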

[2] = compound: Cc1nc(Nc2ncc(C(=O)Nc3c(C)cccc3Cl)s2)cc(N2CCN(CCO)CC2)n1 [Dasatinib] + C[C@@H](Oc1cc(-c2cnn(C3CCNCC3)c2)cnc1N)c1c(Cl)ccc(F)c1Cl [Crizotinib] (partner 1 µM)
How it was run: as §1

[3] = compound: C1CC1C(=O)NC2=NNC3=C2C=CC(=C3)C4=CC(=CC=C4)C(=O)NC5CC5 [XMD13-2] + COc1cc2c(Oc3ccc(NC(=O)C4(C(=O)Nc5ccc(F)cc5)CC4)cc3F)ccnc2cc1OCCCN1CCOCC1 [Foretinib] (partner 0.25 µM)
How it was run: as §1

[4] = compound: Cc1nc(Nc2ncc(C(=O)Nc3c(C)cccc3Cl)s2)cc(N2CCN(CCO)CC2)n1 [Dasatinib] + CC(=O)Nc1cccc(-n2c(=O)n(C3CC3)c(=O)c3c(Nc4ccc(I)cc4F)n(C)c(=O)c(C)c32)c1 [Trametinib] (partner 0.02 µM)
How it was run: as §1

Cell Line	relative viability ([1]; first compound 0.08 µM)	relative viability ([1]; first compound 0.253 µM)	relative viability ([1]; first compound 0.8 µM)	relative viability ([1]; first compound 2.53 µM)	relative viability ([1]; first compound 8 µM)	relative viability ([2]; first compound 0.005 µM)	relative viability ([2]; first compound 0.01581 µM)	relative viability ([2]; first compound 0.05 µM)	relative viability ([2]; first compound 0.1581 µM)	relative viability ([2]; first compound 0.5 µM)	relative viability ([3]; first compound 0.05 µM)	relative viability ([3]; first compound 0.1581 µM)	relative viability ([3]; first compound 0.5 µM)	relative viability ([3]; first compound 1.581 µM)	relative viability ([3]; first compound 5 µM)	relative viability ([4]; first compound 0.005 µM)	relative viability ([4]; first compound 0.01581 µM)	relative viability ([4]; first compound 0.05 µM)	relative viability ([4]; first compound 0.1581 µM)	relative viability ([4]; first compound 0.5 µM)
NCI-H1355	0.68	0.822	0.846	0.655	0.651	1.04	0.781	0.983	0.585	0.443	1.08	0.944	1.04	1.08	1.1	0.48	0.346	0.5	0.293	0.265
NCI-H1437	0.611	0.631	0.658	0.647	0.601	0.868	0.894	1.1	0.79	0.251	1.2	1.25	1.25	1.24	1.27	0.55	0.465	0.433	0.305	0.25
NCI-H1650	0.71	0.602	0.749	0.905	0.969	0.801	0.619	0.456	0.303	0.239	1.36	1.07	1.15	0.967	1.81	0.667	0.493	0.406	0.313	0.216
NCI-H1651	0.15	0.176	0.176	0.169	0.171	0.874	0.776	0.841	0.768	0.704	0.866	0.808	0.799	0.744	0.827	0.848	0.852	0.834	0.77	0.679
NCI-H1666	0.692	0.798	0.684	0.738	0.728	1.01	0.878	0.783	0.561	0.247	1.12	0.998	0.913	0.926	0.982	0.879	0.858	0.986	0.776	0.833
NCI-H1734	0.57	0.628	0.596	0.46	0.558	0.553	0.485	0.515	0.301	0.35	1.05	0.843	0.864	0.8	0.658	0.665	0.59	0.612	0.599	0.512
NCI-H1755	0.888	0.942	0.913	0.798	0.627	0.696	0.657	0.365	0.202	0.174	1.04	0.871	0.939	0.86	0.937	0.752	0.68	0.658	0.444	0.301
NCI-H1915	0.243	0.275	0.224	0.211	0.398	0.828	0.764	0.638	0.284	0.24	1.12	1.08	1.12	1.11	1.21	0.291	0.245	0.228	0.151	0.0841
